Laboratory results from PMC3199943, “Screening the MayBridge Rule of 3 Fragment Library for Compounds That Interact with the Trypanosoma brucei myo-Inositol-3-Phosphate Synthase and/or Show Trypanocidal Activity” (Molecular Biology International, 2011).
Like-named read-outs stand apart in the source and are kept apart here.

What was measured:
TbINO1 = target: T1, TbINO1 (Trypanosoma brucei brucei, UniProt Q5QQ46); assay: biochemical; format: binding; conditions: for TbINO1 Tm increase: positive control
T1 sequence (Q5QQ46 1-528): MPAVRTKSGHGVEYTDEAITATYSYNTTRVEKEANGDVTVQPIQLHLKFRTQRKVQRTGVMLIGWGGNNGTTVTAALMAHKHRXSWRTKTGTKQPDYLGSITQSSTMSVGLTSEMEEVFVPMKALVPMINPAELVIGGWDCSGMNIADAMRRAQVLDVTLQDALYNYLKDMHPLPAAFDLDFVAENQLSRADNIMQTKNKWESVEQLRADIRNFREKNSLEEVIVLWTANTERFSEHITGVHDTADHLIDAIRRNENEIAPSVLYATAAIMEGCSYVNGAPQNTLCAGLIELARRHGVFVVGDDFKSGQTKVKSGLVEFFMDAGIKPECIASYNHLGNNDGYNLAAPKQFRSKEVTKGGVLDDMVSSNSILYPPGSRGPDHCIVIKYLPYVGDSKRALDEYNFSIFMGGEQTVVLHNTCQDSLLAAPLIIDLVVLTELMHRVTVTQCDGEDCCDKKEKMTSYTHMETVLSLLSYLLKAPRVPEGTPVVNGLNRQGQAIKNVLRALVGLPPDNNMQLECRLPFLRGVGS

HeLa cells = assay: cells; conditions: for viability at 500 µM: 65 h; for HeLa Cells Alamar Blue: Supplementary Table 1, compound 0.5 mM, percentage of controls, mean ± SD (n=3) or SE (n=2)
Outline: (§1)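 HeLa and A549 cells grown in DMEM with 10% FCS and 2 mM L-Glutamine were seeded at 2 × 10^4 cells/well. They were exposed to compounds for ~65 hours, then Alamar Blue was added for a further 5 hours to measure viability.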

A549 cells = assay: Cytotoxicity against A549 cells, Alamar Blue; format: cell-based; conditions: Supplementary Table 1, compound 0.5 mM, percentage of controls (n=1); for viability at 500 µM: Homo sapiens, A549, 65 h
Outline: as §1

[1] = read-out: Tb Ino1 Tm Shift [˚C]
[2] = Homo sapiens, HeLa, read-out: HeLa Cells Alamar Blue
[3] = Supplementary Table 1, compound 1mM, mean ± SD from Boltzman curve fitting, read-out: Tb Ino1 Tm Shift [˚C]
[4] = Supplementary Table 1, compound 1mM, mean ± SD from Boltzman curve fitting
[5] = Homo sapiens, HeLa, read-out: HeLa Cells Alamar Blue (% survival)

| Compound | ΔTm at 1000 µM (TbINO1; [1]) [°C] | viability at 500 µM (HeLa cells; [2]) [%] | viability at 500 µM (A549 cells) [%] | also measured |
| --- | --- | --- | --- | --- |
| NCc1ccoc1 [compound 5, 3‐furylmethylamine] | 0.3 ± 0.06 | 101 ± 5.3 | 113 | – |
| CN1CCN(C)C1=O [compound 35, 1,3‐dimethylimidazolidin‐2‐one] | – | 101 ± 6.6 | 92.7 | ΔTm at 1000 µM (TbINO1; [3]): 0.04 ± 0.07 °C |
| Cn1nc(-c2cccs2)cc1N [compound 450, 1‐methyl‐3‐(2‐thienyl)‐1H‐pyrazol‐5‐amine] | – | – | – | Tb Ino1 Tm Shift [˚C] (TbINO1; [4]): 1.1 ± 0.06 °C; HeLa Cells Alamar Blue (HeLa cells): 89.3 ± 5.5 percentage of controls; A549 Cells Alamar Blue (A549 cells): 90.7 percentage of controls |
| Cc1csc2ncnc(Cl)c12 [compound 486, 4‐chloro‐5‐methylthieno[2,3‐d]pyrimidine] | 0.24 ± 0.07 | 101 ± 12.2 | 111 | – |
| Nc1cccc(-c2cnco2)c1 [compound 267, 3‐(1,3‐oxazol‐5‐yl)aniline] | 0.13 ± 0.09 | 75 ± 15.2 | 79.8 | – |
| COC(=O)Cc1ccsc1 [compound 238, methyl 2‐(3‐thienyl)acetate] | 0.39 ± 0.07 | 111 ± 9.9 | 64.7 | – |
| NC(=S)N1CCOCC1 [compound 159, morpholine‐4‐carbothioamide] | 0.21 ± 0.05 | 93.8 ± 9.3 | 109 | – |
| N#Cc1ccc(O)cc1F [compound 120, 2‐fluoro‐4‐hydroxybenzonitrile] | 0.41 ± 0.06 | 18.6 ± 10.7 | 72.6 | – |
| N#Cc1ccccc1-n1cccn1 [compound 340, 2‐(1H‐pyrazol‐1‐yl)benzonitrile] | 0.18 ± 0.06 | 104 ± 16.5 | 134 | – |
| Cc1cccc(O)n1 [compound 19, 6‐methylpyridin‐2‐ol] | 0.09 ± 0.08 | 103 ± 7.6 | 85.6 | – |
| c1ccc(-c2cnco2)cc1 [compound 156, 5‐phenyl‐1,3‐oxazole] | 0.95 ± 0.06 | 77.5 ± 18.3 | 104 | – |
| Cc1nn(C)c2sc(CO)cc12 [compound 467, (1,3‐dimethyl‐1H‐thieno[2,3‐c]pyrazol‐5‐yl)methanol] | – | – | – | Tb Ino1 Tm Shift [˚C] (TbINO1; [4]): 0.35 ± 0.09 °C; HeLa Cells Alamar Blue (HeLa cells): 67.5 ± 16.4 percentage of controls; A549 Cells Alamar Blue (A549 cells): 70.7 percentage of controls |
| Cc1cccc(CN)c1C [compound 113, 2,3‐dimethylbenzylamine] | 0.12 ± 0.07 | 89.3 ± 15.9 | 83.6 | – |
| CCCc1nccs1 [compound 82, 2‐propyl‐1,3‐thiazole] | 0.22 ± 0.07 | 96.8 ± 11 | 114 | – |
| O=C(O)c1sccc1-n1cccc1 [compound 577, 3-(1H-pyrrol-1-yl)thiophene-2-carboxylic acid] | – | 103 ± 2.8 | 90.4 | ΔTm at 1000 µM (TbINO1; read-out: TbIno1 Tm shift [°C]): 2.78 ± 0.08 °C; viability at 500 µM (HeLa cells; [5]): 103 ± 2.8%; CC50 (HeLa cells; Homo sapiens, HeLa, read-out: HeLa ED50): > 20 mM |
| CC1CNC(C)CN1 (centres unmarked) [compound 36, 2,5‐dimethylpiperazine] | 0.18 ± 0.08 | 91.3 ± 12.1 | 76.6 | – |
| Cc1nc(-c2ccccc2)c(CO)s1 [compound 666, (2‐methyl‐4‐phenyl‐1,3‐thiazol‐5‐yl)methanol] | – | – | – | Tb Ino1 Tm Shift [˚C] (TbINO1; [4]): 0.08 ± 0.05 °C; HeLa Cells Alamar Blue (HeLa cells): 95.3 ± 5 percentage of controls; A549 Cells Alamar Blue (A549 cells): 113.4 percentage of controls |
| Cc1ccsc1CN [compound 83, (3‐methyl‐2‐thienyl)methylamine] | 0.43 ± 0.06 | 95.4 ± 10 | 124 | – |
| O=C(O)c1ccc(-c2ccccn2)s1 [compound 661, 5‐(2‐pyridyl)thiophene‐2‐carboxylic acid] | 0.91 ± 0.07 | 95.3 ± 3.5 | 94.1 | – |
| O=C(O)C(O)c1ccccc1 (centres unmarked) [compound 202, 2‐hydroxy‐2‐phenylacetic acid] | 0 | 96.7 ± 12.5 | 55.6 | – |
| c1cnc2c(c1)OCCN2 [compound 118, 3,4‐dihydro‐2H‐pyrido[3,2‐b][1,4]oxazine] | 0.46 ± 0.06 | 84.1 ± 18 | 92.3 | – |
| N#CCc1ccccn1 [compound 46, 2‐(2‐pyridyl)acetonitrile] | 1.11 ± 0.24 | 63.2 ± 17.9 | 82.6 | – |
| NC(=O)c1ccc(F)c(Cl)c1 [compound 380, 3‐chloro‐4‐fluorobenzamide] | 0.31 ± 0.06 | 92.2 ± 13.4 | 95.9 | – |

| Compound | ΔTm at 1000 µM (TbINO1; [1]) [°C] | viability at 500 µM (HeLa cells; [2]) [%] | viability at 500 µM (A549 cells) [%] | also measured |
| --- | --- | --- | --- | --- |
| Cc1cc(O)cc(C)c1C#N [compound 164, 4‐hydroxy‐2,6‐dimethylbenzonitrile] | 0.26 ± 0.08 | 55.8 ± 12.1 | 90 | – |
| N#Cc1ccc(Oc2ccccn2)cc1 [compound 596, 4‐(pyridin‐2‐yloxy)benzonitrile] | 0.68 ± 0.07 | 97.7 ± 11 | 72.1 | – |
| Cc1ccc(CO)o1 [compound 30, (5-methyl-2-furyl)methanol] | – | 23.3 ± 18.6 | 23.7 | ΔTm at 1000 µM (TbINO1; read-out: TbIno1 Tm shift [°C]): 3.79 ± 0.08 °C; viability at 500 µM (HeLa cells; [5]): 23.3 ± 18.6% |
| O=C(Nc1ccncc1)c1ccccc1 [compound 603, N1‐(4‐pyridyl)benzamide] | 0.32 ± 0.07 | 79 ± 15.1 | 57.3 | – |
| COC(=O)c1cccc(N)c1 [compound 194, methyl 3‐aminobenzoate] | 0.78 ± 0.06 | 88.3 ± 9.2 | 38.9 | – |
| O=C(O)C1CCCO1 (centres unmarked) [compound 42, tetrahydro‐2‐furancarboxylic acid] | 0.3 ± 0.08 | 81.9 ± 17 | 75.1 | – |
| Cc1nc(-c2ccc(CO)cc2)cs1 [compound 667, [4‐(2‐methyl‐1,3‐thiazol‐4‐yl)phenyl]methanol] | – | – | – | Tb Ino1 Tm Shift [˚C] (TbINO1; [4]): 0.4 ± 0.07 °C; HeLa Cells Alamar Blue (HeLa cells): 76.7 ± 4.3 percentage of controls; A549 Cells Alamar Blue (A549 cells): 103.8 percentage of controls |
| NC1CCSCC1 [compound 45, tetrahydrothiopyran‐4‐ylamine] | 0.24 ± 0.07 | 88.6 ± 3.1 | 95.6 | – |
| O=C(O)c1ccoc1 [compound 28, 3-furoic acid] | – | 48.2 ± 11.8 | 111 | ΔTm at 1000 µM (TbINO1; read-out: TbIno1 Tm shift [°C]): 3.72 ± 0.08 °C; viability at 500 µM (HeLa cells; [5]): 48.2 ± 11.8% |
| O=C(O)c1ccc(-c2ccccc2)nc1 [compound 610, 6‐phenylnicotinic acid] | 0.46 ± 0.06 | 82.3 ± 8.2 | 125 | – |
| NC1Cc2ccccc2C1 [compound 104, indan‐2‐amine] | – | 70 ± 18.5 | 123 | ΔTm at 1000 µM (TbINO1; [3]): 0.89 ± 0.05 °C |
| O=C1CCSc2ccc(Cl)cc21 [compound 609, 6-chloro-3,4-dihydro-2H-1-benzothiin-4-one] | – | 74.5 ± 13.7 | 105 | ΔTm at 1000 µM (TbINO1; read-out: TbIno1 Tm shift [°C]): 2.49 ± 0.04 °C; viability at 500 µM (HeLa cells; [5]): 74.5 ± 13.7% |
| O=CC[C@@H](O)[C@H](O)[C@H](O)COP(=O)(O)O [2-deoxy-glucose-6-phosphate, reference compound] | – | – | – | TbINO1 Tm increase (TbINO1; inhibitor, 4 mM): 2.84 ± 0.47 °C |
| O=C[C@H](O)[C@@H](O)[C@H](O)[C@H](O)COP(=O)(O)O [glucose-6-phosphate, reference compound] | – | – | – | TbINO1 Tm increase (TbINO1; substrate, 5 mM): 0.70 ± 0.28 °C |
| Cc1noc(N)c1C [compound 32, 3,4‐dimethylisoxazol‐5‐amine] | – | 76.4 ± 5.7 | 71.7 | – |
| N#Cc1ccc(N)cc1C(F)(F)F [compound 500, 4‐amino‐2‐(trifluoromethyl)benzonitrile] | – | 51 ± 10.6 | 72.8 | – |
| OCc1ccc2ncccc2c1 [compound 255, 6‐quinolinylmethanol] | – | 89.6 ± 6.8 | 84 | – |
| Cn1ccc2ccc(C(=O)O)cc21 [compound 398, 1‐methyl‐1H‐indole‐6‐carboxylic acid] | – | 109 ± 10.3 | 101 | – |
| OCc1ccc(-c2cncnc2)cc1 [compound 505, (4‐pyrimidin‐5‐ylphenyl)methanol] | – | 78.6 ± 20 | 85.3 | – |
| FC(F)(F)C1=NCCNC=C1 [compound 295, 5‐(trifluoromethyl)‐2,3‐dihydro‐1H‐1,4‐diazepine] | – | – | – | HeLa Cells Alamar Blue (HeLa cells): 75.2 ± 18.7 percentage of controls; A549 Cells Alamar Blue (A549 cells): 72.1 percentage of controls |
| Nc1nsc(-c2ccccc2)n1 [compound 424, 5‐phenyl‐1,2,4‐thiadiazol‐3‐amine] | – | 62.2 ± 15.4 | 60.1 | – |
| CCCCCSc1nnc[nH]1 [compound 357, 3‐(pentylthio)‐4H‐1,2,4‐triazole] | – | 64.5 ± 8.6 | 45.3 | – |
